{"source": "patent US8541588B2", "about": "“Sulfonamide derivatives” (Pfizer Limited, priority 2009, dated 2013)", "target": "T1, Nav1.7 (or SCN9A) channel; HEK cells stably transfected with hSCN9A (Homo sapiens, UniProt Q15858)", "T1 construct": "expressed in transfected cells", "T1 sequence (Q15858 whole entry)": "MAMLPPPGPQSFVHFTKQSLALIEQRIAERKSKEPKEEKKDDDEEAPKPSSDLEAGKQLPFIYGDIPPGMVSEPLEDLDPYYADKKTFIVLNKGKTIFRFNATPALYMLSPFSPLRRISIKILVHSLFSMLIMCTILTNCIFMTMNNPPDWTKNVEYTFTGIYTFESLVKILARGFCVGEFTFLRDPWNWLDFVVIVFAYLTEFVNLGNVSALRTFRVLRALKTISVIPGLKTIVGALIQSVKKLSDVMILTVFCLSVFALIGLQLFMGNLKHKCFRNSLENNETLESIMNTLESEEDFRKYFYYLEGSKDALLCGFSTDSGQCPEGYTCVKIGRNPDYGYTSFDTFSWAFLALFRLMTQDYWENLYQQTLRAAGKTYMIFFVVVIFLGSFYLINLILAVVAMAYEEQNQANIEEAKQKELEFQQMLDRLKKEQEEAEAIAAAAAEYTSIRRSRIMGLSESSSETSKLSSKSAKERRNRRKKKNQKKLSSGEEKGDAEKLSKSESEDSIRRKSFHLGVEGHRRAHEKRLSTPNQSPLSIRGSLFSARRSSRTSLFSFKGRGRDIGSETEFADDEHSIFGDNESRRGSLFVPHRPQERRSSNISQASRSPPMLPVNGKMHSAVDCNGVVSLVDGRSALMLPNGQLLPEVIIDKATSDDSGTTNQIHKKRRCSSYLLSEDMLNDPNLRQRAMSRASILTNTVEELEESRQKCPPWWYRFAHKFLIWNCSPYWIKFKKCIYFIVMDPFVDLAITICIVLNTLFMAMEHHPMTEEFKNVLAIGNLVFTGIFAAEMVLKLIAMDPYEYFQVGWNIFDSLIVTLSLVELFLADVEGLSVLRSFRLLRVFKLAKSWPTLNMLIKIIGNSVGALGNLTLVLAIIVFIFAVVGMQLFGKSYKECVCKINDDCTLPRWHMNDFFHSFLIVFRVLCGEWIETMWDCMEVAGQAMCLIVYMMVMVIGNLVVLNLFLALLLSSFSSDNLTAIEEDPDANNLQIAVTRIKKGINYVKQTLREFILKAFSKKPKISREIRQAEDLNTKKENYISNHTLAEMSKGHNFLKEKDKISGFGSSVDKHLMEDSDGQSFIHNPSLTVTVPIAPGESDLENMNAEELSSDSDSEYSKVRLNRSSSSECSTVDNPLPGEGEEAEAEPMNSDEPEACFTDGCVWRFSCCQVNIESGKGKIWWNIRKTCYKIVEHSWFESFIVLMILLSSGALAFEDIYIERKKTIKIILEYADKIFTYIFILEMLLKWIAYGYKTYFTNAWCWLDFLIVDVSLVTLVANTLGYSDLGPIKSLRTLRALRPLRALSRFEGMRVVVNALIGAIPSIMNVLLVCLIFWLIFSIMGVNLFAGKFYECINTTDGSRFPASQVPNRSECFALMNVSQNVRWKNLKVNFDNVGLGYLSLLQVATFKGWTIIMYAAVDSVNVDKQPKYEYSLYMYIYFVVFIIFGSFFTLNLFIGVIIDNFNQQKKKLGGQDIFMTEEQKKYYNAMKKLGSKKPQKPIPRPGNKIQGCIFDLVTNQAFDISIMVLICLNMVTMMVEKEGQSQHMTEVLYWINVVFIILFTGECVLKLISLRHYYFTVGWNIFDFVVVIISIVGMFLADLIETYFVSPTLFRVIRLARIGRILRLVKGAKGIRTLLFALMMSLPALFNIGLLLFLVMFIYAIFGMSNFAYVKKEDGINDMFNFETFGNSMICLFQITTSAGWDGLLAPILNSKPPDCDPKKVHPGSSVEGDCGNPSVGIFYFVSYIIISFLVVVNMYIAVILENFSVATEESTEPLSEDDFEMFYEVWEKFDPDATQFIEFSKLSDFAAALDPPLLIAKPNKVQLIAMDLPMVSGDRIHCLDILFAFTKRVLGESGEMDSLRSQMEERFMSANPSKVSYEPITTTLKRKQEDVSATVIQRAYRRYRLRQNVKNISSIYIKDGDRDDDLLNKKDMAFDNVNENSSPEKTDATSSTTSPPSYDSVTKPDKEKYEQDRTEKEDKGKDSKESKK", "experiment": "Nav1.7 block, PatchXpress 7000 automated whole-cell voltage clamp, estimated IC50 (EIC50)", "type": "cell-based", "conditions": "estimated IC50; hSCN9A HEK cells, PatchXpress platform; Examples 283-814", "data": [{"smiles": "Cn1ncnc1-c1cc(Cl)ccc1Oc1ccc(S(=O)(=O)Nc2ncc(F)s2)cc1C#N", "note": "[Example 717, 4-[4-chloro-2-(1-methyl-1H-1,2,4-triazol-5-yl)phenoxy]-3-cyano-N-(5-fluoro-1,3-thiazol-2-yl)benzenesulfonamide]", "values": [{"measurement": "IC50", "value": ">300", "unit": "nM"}]}, {"smiles": "Cn1nccc1-c1cc(C(F)(F)F)ccc1Oc1ccc(S(=O)(=O)Nc2ncc(F)s2)cc1C#N", "note": "[Example 718, 3-cyano-N-(5-fluoro-1,3-thiazol-2-yl)-4-[2-(1-methyl-1H-pyrazol-5-yl)-4-(trifluoromethyl)phenoxy]benzenesulfonamide]", "values": [{"measurement": "IC50", "value": 33, "unit": "nM"}]}, {"smiles": "Cn1nc(C(F)(F)F)cc1-c1ccc(Oc2ccc(S(=O)(=O)Nc3ncc(F)s3)cc2C#N)cc1F", "note": "[Example 719, 3-cyano-4-{3-fluoro-4-[1-methyl-3-(trifluoromethyl)-1H-pyrazol-5-yl]phenoxy}-N-(5-fluoro-1,3-thiazol-2-yl)benzenesulfonamide]", "values": [{"measurement": "IC50", "value": 160, "unit": "nM"}]}, {"smiles": "Cn1nc(C(F)(F)F)cc1-c1ccc(Oc2ccc(S(=O)(=O)Nc3ncc(F)s3)cc2C#N)c(Cl)c1", "note": "[Example 720, 4-{2-chloro-4-[1-methyl-3-(trifluoromethyl)-1H-pyrazol-5-yl]phenoxy}-3-cyano-N-(5-fluoro-1,3-thiazol-2-yl)benzenesulfonamide]", "values": [{"measurement": "IC50", "value": 56, "unit": "nM"}]}, {"smiles": "Cn1nccc1-c1cc(C#N)ccc1Oc1ccc(S(=O)(=O)Nc2nccs2)cc1F", "note": "[Example 721, 4-[4-Cyano-2-(1-methyl-1H-pyrazol-5-yl)phenoxy]-3-fluoro-N-1,3-thiazol-2-ylbenzenesulfonamide]", "values": [{"measurement": "IC50", "value": 160, "unit": "nM"}]}, {"smiles": "O=S(=O)(Nc1nccs1)c1ccc(Oc2cc(Cl)ccc2-c2ccn[nH]2)c(F)c1", "note": "[Example 722, 4-[5-Chloro-2-(1H-pyrazol-5-yl)phenoxy]-3-fluoro-N-1,3-thiazol-2-ylbenzenesulfonamide]", "values": [{"measurement": "IC50", "value": 140, "unit": "nM"}]}, {"smiles": "CC(C)Cc1ccc(Oc2ccc(S(=O)(=O)Nc3nccs3)cc2F)c(-c2ccnn2C)c1", "note": "[Example 723, 3-Fluoro-4-[4-isobutyl-2-(1-methyl-1H-pyrazol-5-yl)phenoxy]-N-1,3-thiazol-2-ylbenzenesulfonamide]", "values": [{"measurement": "IC50", "value": 64, "unit": "nM"}]}, {"smiles": "O=S(=O)(Nc1ncns1)c1ccc(Oc2ccc(Cl)cc2-c2cn[nH]c2)c(Cl)c1", "note": "[Example 724, 3-chloro-4-[4-chloro-2-(1H-pyrazol-4-yl)phenoxy]-N-1,2,4-thiadiazol-5-ylbenzenesulfonamide]", "values": [{"measurement": "IC50", "value": 1.7, "unit": "nM"}]}, {"smiles": "CN1CCC(n2nccc2-c2cc(Cl)ccc2Oc2ccc(S(=O)(=O)Nc3ncns3)cc2C#N)CC1", "note": "[Example 725, 4-{4-chloro-2-[1-(1-methylpiperidin-4-yl)-1H-pyrazol-5-yl]phenoxy}-3-cyano-N-1,2,4-thiadiazol-5-ylbenzenesulfonamide]", "values": [{"measurement": "IC50", "value": 20, "unit": "nM"}]}, {"smiles": "O=S(=O)(Nc1cscn1)c1cc(Cl)c(Oc2ccc(Cl)cc2-c2ccnn2C2CNC2)cc1F", "note": "[Example 726, 4-[2-(1-azetidin-3-yl-1H-pyrazol-5-yl)-4-chlorophenoxy]-5-chloro-2-fluoro-N-1,3-thiazol-4-ylbenzenesulfonamide]", "values": [{"measurement": "IC50", "value": 5.8, "unit": "nM"}]}, {"smiles": "N#Cc1cc(S(=O)(=O)Nc2cscn2)ccc1Oc1ccc(C(F)(F)F)cc1-c1cnn(C2CNC2)c1", "note": "[Example 727, 4-[2-(1-azetidin-3-yl-1H-pyrazol-4-yl)-4-(trifluoromethyl)phenoxy]-3-cyano-N-1,3-thiazol-4-ylbenzenesulfonamide]", "values": [{"measurement": "IC50", "value": 1900, "unit": "nM"}]}, {"smiles": "N#Cc1cc(S(=O)(=O)Nc2ncns2)ccc1Oc1ccc(Cl)cc1-c1ccnn1C1CNC1", "note": "[Example 728, 4-[2-(1-azetidin-3-yl-1H-pyrazol-5-yl)-4-chlorophenoxy]-3-cyano-N-1,2,4-thiadiazol-5-ylbenzenesulfonamide]", "values": [{"measurement": "IC50", "value": 4.8, "unit": "nM"}]}, {"smiles": "CN1CC(n2nccc2-c2cc(Cl)ccc2Oc2ccc(S(=O)(=O)Nc3cscn3)cc2C#N)C1", "note": "[Example 729, 4-{4-chloro-2-[1-(1-methylazetidin-3-yl)-1H-pyrazol-5-yl]phenoxy}-3-cyano-N-1,3-thiazol-4-ylbenzenesulfonamide]", "values": [{"measurement": "IC50", "value": 22, "unit": "nM"}]}]}
